Data: publication PMC5867665, “Targeting Multiple Effector Pathways in Pancreatic Ductal Adenocarcinoma with a G-Quadruplex-Binding Small Molecule” (Journal of Medicinal Chemistry, 2018)

Tested on: MIA PaCa-2 pancreatic tumor xenograft
Assay: Subcutaneous MIA PaCa-2 pancreatic tumor xenograft therapy study
Type: in vivo
Conditions: for tumor regrowth after dosing stopped: 15 mg/kg, from day 28 onward
Experimental: To determine if the in vitro activity of CM03 was paralleled in vivo, we explored the activity of CM03 in a mouse xenograft model of PDAC. We have previously reported that the maximum tolerated dosage (MTD) for intravenous (IV) administration of MM41 is 25 mg/kg.[33] CM03 was well tolerated, up to a dosage of 45–50 mg/kg, as judged by a dose-escalation MTD study. A therapeutic schedule of two CM03 intravenous (IV) doses was explored using a subcutaneous MIA PaCa-2 pancreatic tumor xenograft model derived from the human cell line used in the cell growth inhibition studies. A group size of eight CD-1 nude mice was used, and dosing was conducted at 10 and 15 mg/kg, each twice weekly, over a period of 4 weeks (28 days: 8 doses). Two further groups were given either MM41 or gemcitabine at 15 mg/kg and received the same dose regimen. […] IVIS imaging of treated mice was performed by taking account of the intrinsic fluorescence of CM03. […] Thus, in contrast to MM41 and gemcitabine, the higher-dose CM03 treatment results in a statistically significant (p < 0.001) antitumor effect, which persisted long after dosing had ceased, up to the termination of the xenograft experiment (62 days).
For therapy studies, female CD-1 nude mice (2–3 months old, weighing 20–25 g) were injected subcutaneously with 5 × 10^6 MIA PaCa-2 cells in the right flank (unsupplemented RPMI + Matrigel). When the tumors were established (approximately 13 days, mean size 0.05 cm^3), the mice were divided into five treatment groups with eight mice/group. The MM41 and CM03 samples were dissolved directly in saline to the required concentrations and administered IV. Tumor size was measured weekly by calliper using the π-based ellipsoid volume formula (length × width × height × π/6) every 3–4 days, and the mice were also weighed and examined at the same time to determine any signs of toxicity from the drug.
• Group 1:15 mg/kg of gemcitabine (Sigma), twice weekly dose. • Group 2:15 mg/kg of MM41, twice weekly dose. • Group 3:10 mg/kg of CM03, twice weekly dose. • Group 4:15 mg/kg of CM03, twice weekly dose. • Group 5: saline only, twice weekly dose.
The xenograft data was analyzed using Student’s t test (GraphPad Inc.). Responses were considered to be significant for those with probabilities (p) less than 5% (p < 0.05). Mice were culled if there was any sign of tumor ulceration, if tumor volume exceeded 1.5 cm^3, or if a weight loss over 20% of initial body weight was observed. Samples of liver, kidney, and spleen from each animal in the CM03 (15 mg/kg) and untreated control groups were excised at the end of the therapy experiment, then fixed in 10% neutral buffered formalin for at least 48 h prior to processing and paraffin embedding. Tissue slices were stained with hematoxylin and eosin and assessed visually for any obvious differences compared with controls, indicative of toxicity and tissue damage. For the imaging study mice were anesthetized using isoflurane and imaged using the IVIS preclinical imaging system from PerkinElmer. Images were captured after 4 h following intravenous administration of CM03 using Cy5.5 excitation for 5 s.

[1] = 15 mg/kg IV twice weekly for 28 days

Structure (SMILES)	MTV ± SEM (Day 62) (10 mg/kg IV twice weekly for 28 days) [cm^3]	IVIS imaging, accumulation in tumor xenograft (10 mg/kg, 4 h after IV administration)	MTV ± SEM (Day 29) [1] [cm^3]	MTV ± SEM (Day 62) [1] [cm^3]	animals with tumor volumes that shrank to <0.05 cm^3 by day 62 (15 mg/kg cohort)	body weight and adverse effects (15 mg/kg cohort, any time during the study)	tumor regrowth after dosing stopped	histopathological analysis of vital organs (animals sacrificed at the end of the experiments)
O=C1c2ccc3c4c(c(NCCN5CCCC5)cc(c24)C(=O)N1CCCN1CCOCC1)C(=O)N(CCCN1CCOCC1)C3=O [CM03, 2,7-bis(3-morpholinopropyl)-4-((2-(pyrrolidin-1-yl)ethyl)amino)benzo[lmn][3,8]phenanthroline-1,3,6,8(2H,7H)-tetraone]	0.29 ± 0.10	significant accumulation of CM03 in the tumor xenograft	0.04 ± 0.02	0.09 ± 0.05	Five out of the eight	No body weight reduction	no tumor regrowth was observed	no sign of organ damage
Nc1ccn([C@@H]2O[C@H](CO)[C@@H](O)C2(F)F)c(=O)n1 [gemcitabine, reference compound]	–	–	0.05 ± 0.02	0.23 ± 0.10	–	–	tumor regrowth being apparent as soon as dosing was stopped	–
